According to patent publication EP4700018A1, “NAV1.8 INHIBITORS, PREPARATION METHOD THEREFOR AND USE THEREOF” (Shanghai Institute of Materia Medica, Chinese Academy of …, priority 2023, dated 2024):

Assays:
[1] = target: human Nav1.8 sodium channel (Homo sapiens, UniProt Q9Y5Y9); assay: Blocking activity on sodium channel 1.8 (Nav1.8), whole-cell manual patch clamp; type: cell-based; settings: for inhibition at 0.001 µM: read-out: inhibition Percent @1 nM, 1 nM compound; for inhibition at 0.01 µM: read-out: inhibition Percent @10 nM, 10 nM compound
[2] = In vivo pharmacokinetics in rats, single intravenous injection or oral gavage; settings: male, SD, plasma, Rat; for Vd: read-out: Vss
Method: The in vivo pharmacokinetics in rats were evaluated via a single intravenous injection or oral gavage administration in this test example. • 1. Test Methods and Conditions: Male SD rats were fasted overnight and administered a single intravenous dose of 2 mg/kg or 1 mg/kg of the test compound (solvent for Intravenous administration was 5% DMSO/10% Solutol® HS 15/10% EtOH/75% saline, with a dosing volume of 5 mL/kg) and an oral gavage dose of 10 mg/kg or 5 mg/kg of the test compound (solvent for administration was 0.5% CMC-Na, with a dosing volume of 10 mL/kg), respectively. • 2. Sampling Information: Blood samples (0.2 mL) were collected from the retroorbital venous plexus at the designated time points: 0.25, 0.5, 1.0, 2.0, 3.0, 4.0, 6.0, 8.0, and 24 hours before and after dosing (a 5 min sampling point was added for the intravenous administration group), respectively. The samples were placed in EDTA-K2 tubes and centrifuged at 11,000 rpm for 5 minutes. Plasma was separated and frozen at -20°C. • 3. Assay Information: LC/MS/MS was used to determine the concentration of the parent drug in rat/mouse plasma following intravenous and oral gavage administration of the test compound. Pharmacokinetic parameters in rat/mouse plasma were calculated for both administration routes, and the bioavailability of each compound in rats was also calculated. Table 5: Intravenous Pharmacokinetic Information of Representative Compounds

[3] = intravenous, single dose 2 mg/kg or 1 mg/kg (figure not given)

human Nav1.8 sodium channel, sequence (Q9Y5Y9 whole entry): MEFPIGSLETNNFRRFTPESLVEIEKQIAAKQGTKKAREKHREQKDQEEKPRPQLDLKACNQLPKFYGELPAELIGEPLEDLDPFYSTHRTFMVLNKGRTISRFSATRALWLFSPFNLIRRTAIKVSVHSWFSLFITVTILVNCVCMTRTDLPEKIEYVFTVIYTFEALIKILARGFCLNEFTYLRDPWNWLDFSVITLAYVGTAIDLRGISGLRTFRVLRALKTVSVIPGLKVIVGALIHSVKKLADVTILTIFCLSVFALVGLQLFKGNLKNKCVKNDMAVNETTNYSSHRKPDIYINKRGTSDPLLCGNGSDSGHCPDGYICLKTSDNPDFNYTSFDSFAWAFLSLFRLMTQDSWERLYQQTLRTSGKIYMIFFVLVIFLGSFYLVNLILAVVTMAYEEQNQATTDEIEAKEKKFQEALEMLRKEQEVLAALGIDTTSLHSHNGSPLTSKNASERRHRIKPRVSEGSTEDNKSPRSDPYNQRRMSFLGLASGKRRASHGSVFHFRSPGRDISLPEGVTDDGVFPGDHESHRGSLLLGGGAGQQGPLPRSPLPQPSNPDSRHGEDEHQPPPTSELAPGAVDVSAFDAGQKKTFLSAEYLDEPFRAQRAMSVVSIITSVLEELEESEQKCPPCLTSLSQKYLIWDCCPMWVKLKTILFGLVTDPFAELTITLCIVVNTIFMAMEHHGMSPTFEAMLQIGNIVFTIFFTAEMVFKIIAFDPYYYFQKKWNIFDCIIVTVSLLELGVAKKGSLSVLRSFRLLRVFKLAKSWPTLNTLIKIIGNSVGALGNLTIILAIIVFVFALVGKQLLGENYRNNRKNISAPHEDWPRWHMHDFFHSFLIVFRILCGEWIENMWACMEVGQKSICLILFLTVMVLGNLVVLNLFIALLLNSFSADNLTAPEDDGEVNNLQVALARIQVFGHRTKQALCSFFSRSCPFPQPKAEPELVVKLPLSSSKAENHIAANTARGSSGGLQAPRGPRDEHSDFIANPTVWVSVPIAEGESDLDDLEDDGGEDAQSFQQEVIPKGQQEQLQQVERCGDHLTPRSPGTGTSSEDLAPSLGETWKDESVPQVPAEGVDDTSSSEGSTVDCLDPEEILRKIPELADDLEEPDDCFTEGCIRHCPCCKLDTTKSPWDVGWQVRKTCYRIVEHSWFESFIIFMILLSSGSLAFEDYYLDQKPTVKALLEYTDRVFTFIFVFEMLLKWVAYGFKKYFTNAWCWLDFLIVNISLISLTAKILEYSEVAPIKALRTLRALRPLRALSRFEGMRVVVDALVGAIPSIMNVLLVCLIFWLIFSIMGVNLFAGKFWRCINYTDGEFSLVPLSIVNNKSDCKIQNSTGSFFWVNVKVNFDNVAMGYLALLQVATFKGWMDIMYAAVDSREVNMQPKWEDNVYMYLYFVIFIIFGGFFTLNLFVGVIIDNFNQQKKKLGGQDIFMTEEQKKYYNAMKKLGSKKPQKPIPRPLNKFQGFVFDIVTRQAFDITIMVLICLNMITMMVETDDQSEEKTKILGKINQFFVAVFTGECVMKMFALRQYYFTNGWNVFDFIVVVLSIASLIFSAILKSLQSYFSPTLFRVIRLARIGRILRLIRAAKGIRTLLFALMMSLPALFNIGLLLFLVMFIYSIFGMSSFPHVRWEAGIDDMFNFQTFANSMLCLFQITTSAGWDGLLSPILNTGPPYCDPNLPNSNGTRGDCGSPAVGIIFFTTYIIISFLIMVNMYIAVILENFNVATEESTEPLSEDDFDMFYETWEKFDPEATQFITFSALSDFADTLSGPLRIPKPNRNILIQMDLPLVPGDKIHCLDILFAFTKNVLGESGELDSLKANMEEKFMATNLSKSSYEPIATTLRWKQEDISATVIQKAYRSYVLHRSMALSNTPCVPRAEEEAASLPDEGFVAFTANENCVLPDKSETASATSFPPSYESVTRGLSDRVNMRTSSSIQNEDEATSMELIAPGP

Compound Cc1nc(N2CCCC(F)(F)CC2)c(C(=O)Nc2ccc(F)c(C(N)=NO)c2)cc1Cl [Compound I-1, 5-chloro-2-(4,4-difluoroazepan-1-yl)-N-(4-fluoro-3-(N'-hydroxyamidino)phenyl)-6-met hylnicotinamide] has an inhibition at 0.001 µM [1] of 71%, an AUC(0-t) [2, 3] of 1290 ng·h/mL and a clearance [2, 3] of 29.6 mL/min/kg. It also gave a half-life [2, 3] of 0.723 h, a Vd [2, 3] of 0.638 L/kg and an AUC(0-t) ([2]; oral gavage, 10mg/kg) of 546 ng·h/mL. It also gave a Cmax ([2]; oral gavage, 10mg/kg) of 433 ng/mL, a Tmax ([2]; oral gavage, 10mg/kg) of 0.5 h and a half-life ([2]; oral gavage, 10mg/kg) of 1.49 h. The bioavailability ([2]; oral gavage, 10mg/kg) was 8.7%.

Work on CC(C)c1nc(N2CCCC(F)(F)CC2)c(C(=O)Nc2ccc(F)c(C(N)=NO)c2)cc1Cl [Compound I-24, 5-chloro-2-(4,4-difluoroazepan-1-yl)-N-(4-fluoro-3-(N'-hydroxyamidino)phenyl)-6-isop ropylnicotinamide] yielded an inhibition at 0.001 µM [1] of 56%, an AUC(0-t) [2, 3] of 1260 ng·h/mL and a clearance [2, 3] of 12.8 mL/min/kg. For the same compound, the half-life [2, 3] was 2 h, the Vd [2, 3] was 1.38 L/kg and the AUC(0-t) ([2]; oral gavage, 5mg/kg) was 1950 ng·h/mL. It also gave a Cmax ([2]; oral gavage, 5mg/kg) of 244 ng/mL, a Tmax ([2]; oral gavage, 5mg/kg) of 2 h and a half-life ([2]; oral gavage, 5mg/kg) of 2.73 h. The bioavailability ([2]; oral gavage, 5mg/kg) was 30.9%.

In the case of NC(=NO)c1cc(NC(=O)c2cc(Cl)c(C(F)(F)F)cc2N2CCCC(F)(F)CC2)ccc1F [Compound I-33, 5-chloro-2-(4,4-difluoroazepan-1-yl)-N-(4-fluoro-3-(N'-hydroxyamidino)phenyl)-4-(trifluoromethyl)benzamide], the inhibition at 0.001 µM [1] is reported as 86%, the AUC(0-t) [2, 3] is reported as 2270 ng·h/mL and the clearance [2, 3] is reported as 7.44 mL/min/kg. The half-life [2, 3] was 2.67 h, the Vd [2, 3] was 1.16 L/kg and the AUC(0-t) ([2]; oral gavage, 5mg/kg) was 8640 ng·h/mL. For the same compound, the Cmax ([2]; oral gavage, 5mg/kg) was 623 ng/mL, the Tmax ([2]; oral gavage, 5mg/kg) was 6 h and the half-life ([2]; oral gavage, 5mg/kg) was 5.12 h. For the same compound, the bioavailability ([2]; oral gavage, 5mg/kg) was 38.9%.

For NC(=NO)c1cc(NC(=O)c2cc(Cl)c(C(F)(F)F)nc2N2CCCC(F)(F)CC2)ccc1F [Compound I-36, 5-chloro-2-(4,4-difluoroazepan-1-yl)-N-(4-fluoro-3-(N'-hydroxyamidino)phenyl)-6-(trifluoromethyl)nicotinamide], the inhibition at 0.001 µM [1] was 50%, the AUC(0-t) [2, 3] was 4440 ng·h/mL and the clearance [2, 3] was 3.91 mL/min/kg. It also gave a half-life [2, 3] of 3.28 h, a Vd [2, 3] of 0.823 L/kg and an AUC(0-t) ([2]; oral gavage, 5mg/kg) of 4410 ng·h/mL. For the same compound, the Cmax ([2]; oral gavage, 5mg/kg) was 386 ng/mL, the Tmax ([2]; oral gavage, 5mg/kg) was 4.3 h and the half-life ([2]; oral gavage, 5mg/kg) was 3.15 h. For the same compound, the bioavailability ([2]; oral gavage, 5mg/kg) was 38.9%.

For N=C(N)c1cc(NC(=O)c2cc(Cl)c(C(F)F)nc2C2CCCC(F)(F)CC2)ccc1F (centres unmarked) [Compound I-39, N-(3-amidino-4-fluorophenyl)-5-chloro-2-(4,4-difluorocycloheptan-1-yl)-6-difluorome thylnicotinamide], the inhibition at 0.001 µM [1] was 51%.

Compound [2H]Cc1nc(N2CCCC(F)(F)CC2)c(C(=O)Nc2ccc(F)c(C(N)=NO)c2)cc1Cl [Compound I-42, 5-chloro-2-(4,4-difluoroazepan-1-yl)-N-(4-fluoro-3-(N'-hydroxyamidino)phenyl)-6-deu teromethylnicotinamide] has an inhibition at 0.001 µM [1] of 65%.

With CN(C)c1nc(N2CCCC(F)(F)CC2)c(C(=O)Nc2ccc(F)c(C(N)=NO)c2)cc1Cl [Compound I-43, 5-chloro-2-(4,4-difluoroazepan-1-yl)-6-(dimethylamino)-N-(4-fluoro-3-(N'-hydroxyamidino)phenyl)nicotinamide] the inhibition at 0.001 µM [1] was 55%.

NC(=NO)c1cc(NC(=O)c2cc(Cl)c(CF)nc2N2CCCC(F)(F)CC2)ccc1F [Compound I-44, 5-chloro-2-(4,4-difluoroazepan-1-yl)-N-(4-fluoro-3-(N'-hydroxyamidino)phenyl)-6-(fluoromethyl)nicotinamide] showed an inhibition at 0.001 µM [1] of 32%.

CCc1nc(N2CCCC(F)(F)CC2)c(C(=O)Nc2ccc(F)c(C(N)=NO)c2)cc1Cl [Compound I-45, 5-chloro-2-(4,4-difluoroazepan-1-yl)-6-ethyl-N-(4-fluoro-3-(N'-hydroxyamidino)pheny I)nicotinamide] showed an inhibition at 0.001 µM [1] of 94%.

Work on NC(=NO)c1cc(NC(=O)c2cc(Cl)c(N3CCCC3)nc2N2CCCC(F)(F)CC2)ccc1F [Compound I-46, 5-chloro-2-(4,4-difluoroazepan-1-yl)-N-(4-fluoro-3-(N'-hydroxyamidino)phenyl)-6-(pyrrolidinyl)nicotinamide] yielded an inhibition at 0.01 µM [1] of 50%.

With NC(=NO)c1cc(NC(=O)c2cc(Cl)c(Cl)cc2N2CCCC(F)(F)CC2)ccc1F [Compound I-47, 4,5-dichloro-2-(4,4-difluoroazepan-1-yl)-N-(4-fluoro-3-(N'-hydroxyamidino)phenyl)be nzamide] the inhibition at 0.01 µM [1] was 80%.

For NC(=NO)c1cccc(NC(=O)c2cc(Cl)c(C(F)(F)F)cc2N2CCCC(F)(F)CC2)c1 [Compound I-48, 5-chloro-2-(4,4-difluoroazepan-1-yl)-N-(3-(N'-hydroxyamidino)phenyl)-4-trifluoromet hylbenzamide], the inhibition at 0.01 µM [1] was 77%.

NC(=NO)c1cccc(NC(=O)c2c(N3CCCC(F)(F)CC3)ccc(Cl)c2C(F)(F)F)c1 [Compound I-49, 5-chloro-2-(4,4-difluoroazepan-1-yl)-N-(3-(N'-hydroxyamidino)phenyl)-6-(trifluoromethyl)benzamide] showed an inhibition at 0.01 µM [1] of 77%.

COc1c([C@H]2[C@H](C(=O)Nc3ccnc(C(N)=O)c3)O[C@@](C)(C(F)(F)F)[C@H]2C)ccc(F)c1F [VX-548, reference compound] showed an IC50 [1] of 340 ± 40 pM, an AUC(0-t) [2, 3] of 804 ng·h/mL and a clearance [2, 3] of 20.7 mL/min/kg. For the same compound, the half-life [2, 3] was 0.67 h, the Vd [2, 3] was 0.92 L/kg and the AUC(0-t) ([2]; oral gavage, 5mg/kg) was 518 ng·h/mL. For the same compound, the Cmax ([2]; oral gavage, 5mg/kg) was 157 ng/mL, the Tmax ([2]; oral gavage, 5mg/kg) was 0.5 h and the half-life ([2]; oral gavage, 5mg/kg) was 2.68 h. For the same compound, the bioavailability ([2]; oral gavage, 5mg/kg) was 14%.
